Test results reported in US9597407B2, “Targeted antimicrobial moieties” (C3 Jian, Inc., priority 2009, dated 2017).
Entries after “also recorded” stand apart in the source; their conditions may differ.

Columns and labels:
[1] = system: microorganisms; assay: Morphology, biofilm and growth disruption by peptides (Table 5); format: cell-based; parameters: key: A: Peptide aggregates; B: Less hyphal formation; Clumps; Diffuse clumps and small polyps; F: Diffuse growth; H: Thin; I: Growth inhibition; Microcolony formation; Rippled; Small polyps; Thick; W: Halo formation on top, microlonies on bottom
Description: In certain embodiments peptides that induce alterations in phenotype or other biological activities can also be used as antimicrobial effector moieties.

[2] = system: bacteria; assay: Binding of targeting peptides to microorganisms (Table 3); details: peptide binding in aqueous buffers that varied depending on peptide solubility; preferably 1x PBS

For “PF-426 (MLQKYTQMISVTKCIITKNKKTQENVDAYN; Peptide with targeting and/or antimicrobial activity)”, the “Organism, effect (morphology, biofilm and growth disruption)” value ([1]; C. albicans) was “C. albicans (A)”, the “Organism, effect (morphology, biofilm and growth disruption)” value ([1]; C. jejuni) was “C. jejuni (D)” and the “Organism, effect (morphology, biofilm and growth disruption)” value ([1]; E. coli) was “E. coli (C)”. For the same substance, the “Organism, effect (morphology, biofilm and growth disruption)” value ([1]; E. faecalis) was “E. faecalis (D)”, the “Organism, effect (morphology, biofilm and growth disruption)” value ([1]; MRSA) was “MRSA (D)” and the “Organism, effect (morphology, biofilm and growth disruption)” value ([1]; S. epidermidis) was “S. epidermidis (D)”. For the same substance, the “Organism, effect (morphology, biofilm and growth disruption)” value ([1]; S. pneumoniae) was “S. pneumoniae (D)” and the “Target(s) (microorganisms bound by the targeting peptide)” value [2] was “S. epidermidis and E. coli and P. aeruginosa and C. albicans and MRSA and S. pneumoniae and E. faecalis and C. jeikeium”.

With “PF-427 (YVLEYHGLRATQDVDAFMAL; Peptide with targeting and/or antimicrobial activity)” the “Organism, effect (morphology, biofilm and growth disruption)” value ([1]; E. coli) was “E. coli (C)”, the “Organism, effect (morphology, biofilm and growth disruption)” value ([1]; E. faecalis) was “E. faecalis (C)” and the “Organism, effect (morphology, biofilm and growth disruption)” value ([1]; MRSA) was “MRSA (C)”. For the same substance, the “Organism, effect (morphology, biofilm and growth disruption)” value ([1]; S. pneumoniae) was “S. pneumoniae (R)” and the “Target(s) (microorganisms bound by the targeting peptide)” value [2] was “M. luteus; also recorded: P. aeruginosa; also recorded: C. albicans; also recorded: C. jejuni”.

“PF-428 (ENEESIF; Peptide with targeting and/or antimicrobial activity)” was tested, and the “Organism, effect (morphology, biofilm and growth disruption)” value ([1]; S. pneumoniae) was “S. pneumoniae (H)” and the “Target(s) (microorganisms bound by the targeting peptide)” value [2] was “S. epidermidis; also recorded: C. albicans; also recorded: E. faecalis; also recorded: C. jeikeium”.

In the case of “PF-429 (AATLICVGSGIMSSL; Peptide with targeting and/or antimicrobial activity)”, the “Organism, effect (morphology, biofilm and growth disruption)” value ([1]; E. faecalis) is reported as “E. faecalis (C)”, the “Organism, effect (morphology, biofilm and growth disruption)” value ([1]; MRSA) is reported as “MRSA (C)” and the “Organism, effect (morphology, biofilm and growth disruption)” value ([1]; S. epidermidis) is reported as “S. epidermidis (C)”. For the same substance, the “Organism, effect (morphology, biofilm and growth disruption)” value ([1]; S. pneumoniae) was “S. pneumoniae (M)” and the “Target(s) (microorganisms bound by the targeting peptide)” value [2] was “S. epidermidis; also recorded: S. pneumoniae; also recorded: C. jeikeium”.

“PF-430 (AVVCGYLAYTATS; Peptide with targeting and/or antimicrobial activity)” was tested, and the “Organism, effect (morphology, biofilm and growth disruption)” value ([1]; MRSA) was “MRSA (M)”, the “Organism, effect (morphology, biofilm and growth disruption)” value ([1]; S. epidermidis) was “S. epidermidis (M)” and the “Organism, effect (morphology, biofilm and growth disruption)” value ([1]; S. pneumoniae) was “S. pneumoniae (M)”. The “Target(s) (microorganisms bound by the targeting peptide)” value [2] was “S. epidermidis; also recorded: M. luteus; also recorded: E. coli; also recorded: S. pneumoniae; also recorded: E. faecalis; also recorded: C. jeikeium; also recorded: C. jejuni”.

With “PF-433 (MRKEFHNVLSSGQLLADKRPARDYNRK; Peptide with targeting and/or antimicrobial activity)” the “Organism, effect (morphology, biofilm and growth disruption)” value ([1]; S. pneumoniae) was “S. pneumoniae (H)” and the “Target(s) (microorganisms bound by the targeting peptide)” value [2] was “S. epidermidis; also recorded: E. coli; also recorded: S. pneumoniae; also recorded: C. jeikeium”.

For “PF-434 (GQLLADKRPARDYNRK; Peptide with targeting and/or antimicrobial activity)”, the “Organism, effect (morphology, biofilm and growth disruption)” value ([1]; S. pneumoniae) was “S. pneumoniae (S)” and the “Target(s) (microorganisms bound by the targeting peptide)” value [2] was “S. epidermidis; also recorded: M. luteus; also recorded: S. pneumoniae; also recorded: C. jeikeium”.

With “PF-584 (SYIKNLSNQKFLIAF; Peptide with targeting and/or antimicrobial activity)” the “Organism, effect (morphology, biofilm and growth disruption)” value ([1]; C. jejuni) was “C. jejuni (D)”, the “Organism, effect (morphology, biofilm and growth disruption)” value ([1]; E. coli) was “E. coli (C)” and the “Organism, effect (morphology, biofilm and growth disruption)” value ([1]; E. faecalis) was “E. faecalis (D)”. For the same substance, the “Organism, effect (morphology, biofilm and growth disruption)” value ([1]; MRSA) was “MRSA (D)”, the “Organism, effect (morphology, biofilm and growth disruption)” value ([1]; S. epidermidis) was “S. epidermidis (C)” and the “Organism, effect (morphology, biofilm and growth disruption)” value ([1]; S. pneumoniae) was “S. pneumoniae (D)”. The “Target(s) (microorganisms bound by the targeting peptide)” value [2] was “S. epidermidis and M. luteus and P. mirabilis and C. albicans and MRSA and S. pneumoniae and E. faecalis and C. jeikeium”.

For “PF-585 (DYNHLLNVVQDWVNTN; Peptide with targeting and/or antimicrobial activity)”, the “Organism, effect (morphology, biofilm and growth disruption)” value ([1]; C. jejuni) was “C. jejuni (R)”, the “Organism, effect (morphology, biofilm and growth disruption)” value ([1]; E. faecalis) was “E. faecalis (A)” and the “Organism, effect (morphology, biofilm and growth disruption)” value ([1]; MRSA) was “MRSA (S)”. The “Organism, effect (morphology, biofilm and growth disruption)” value ([1]; S. epidermidis) was “S. epidermidis (S)”, the “Organism, effect (morphology, biofilm and growth disruption)” value ([1]; S. pneumoniae) was “S. pneumoniae (R)” and the “Target(s) (microorganisms bound by the targeting peptide)” value [2] was “S. epidermidis and E. coli and C. albicans and MRSA and S. pneumoniae and C. jeikeium”.

“PF-588 (ESVEAIKAKAIK; Peptide with targeting and/or antimicrobial activity)” was tested, and the “Organism, effect (morphology, biofilm and growth disruption)” value ([1]; E. faecalis) was “E. faecalis (A)” and the “Target(s) (microorganisms bound by the targeting peptide)” value [2] was “S. epidermidis; also recorded: E. coli; also recorded: C. albicans; also recorded: E. faecalis; also recorded: C. jeikeium; also recorded: C. jejuni”.

For “PF-590 (YYQAKLFPLL; Peptide with targeting and/or antimicrobial activity)”, the “Organism, effect (morphology, biofilm and growth disruption)” value ([1]; C. jejuni) was “C. jejuni (R)” and the “Target(s) (microorganisms bound by the targeting peptide)” value [2] was “S. epidermidis; also recorded: M. luteus; also recorded: E. coli; also recorded: E. faecalis; also recorded: C. jeikeium”.

For “PF-593 (MEISTLKKEKLHVKDELSQYLANYKK; Peptide with targeting and/or antimicrobial activity)”, the “Organism, effect (morphology, biofilm and growth disruption)” value ([1]; E. faecalis) was “E. faecalis (A)” and the “Target(s) (microorganisms bound by the targeting peptide)” value [2] was “C. jeikeium”.

In the case of “PF-594 (IVSAIV; Peptide with targeting and/or antimicrobial activity)”, the “Organism, effect (morphology, biofilm and growth disruption)” value ([1]; E. faecalis) is reported as “E. faecalis (C)” and the “Target(s) (microorganisms bound by the targeting peptide)” value [2] is reported as “C. jeikeium”.

“PF-596 (SKMWDKILTILILILELIRELIKL; Peptide with targeting and/or antimicrobial activity)” was tested, and the “Organism, effect (morphology, biofilm and growth disruption)” value ([1]; C. jejuni) was “C. jejuni (D)”, the “Organism, effect (morphology, biofilm and growth disruption)” value ([1]; E. coli) was “E. coli (C)” and the “Organism, effect (morphology, biofilm and growth disruption)” value ([1]; E. faecalis) was “E. faecalis (D)”. For the same substance, the “Organism, effect (morphology, biofilm and growth disruption)” value ([1]; MRSA) was “MRSA (D)”, the “Organism, effect (morphology, biofilm and growth disruption)” value ([1]; S. epidermidis) was “S. epidermidis (D)” and the “Organism, effect (morphology, biofilm and growth disruption)” value ([1]; S. pneumoniae) was “S. pneumoniae (D)”. For the same substance, the “Target(s) (microorganisms bound by the targeting peptide)” value [2] was “S. epidermidis and M. luteus and P. mirabilis and E. coli and P. aeruginosa and MRSA and E. faecalis”.

“PF-598 (MKFMLEVRNKAISAYKEITRTQI; Peptide with targeting and/or antimicrobial activity)” was tested, and the “Organism, effect (morphology, biofilm and growth disruption)” value ([1]; C. jejuni) was “C. jejuni (R)”, the “Organism, effect (morphology, biofilm and growth disruption)” value ([1]; E. coli) was “E. coli (C)” and the “Organism, effect (morphology, biofilm and growth disruption)” value ([1]; E. faecalis) was “E. faecalis (R)”. The “Organism, effect (morphology, biofilm and growth disruption)” value ([1]; MRSA) was “MRSA (D)”, the “Organism, effect (morphology, biofilm and growth disruption)” value ([1]; S. epidermidis) was “S. epidermidis (R)” and the “Organism, effect (morphology, biofilm and growth disruption)” value ([1]; S. pneumoniae) was “S. pneumoniae (R)”. The “Target(s) (microorganism bound by the targeting peptide)” value [2] was “S. epidermidis and M. luteus and P. mirabilis and P. aeruginosa and C. albicans and MRSA and S. pneumoniae and C. jeikeium”.

In the case of “PF-599 (LFEIFKPKH; Peptide with targeting and/or antimicrobial activity)”, the “Organism, effect (morphology, biofilm and growth disruption)” value ([1]; C. jejuni) is reported as “C. jejuni (R)”, the “Organism, effect (morphology, biofilm and growth disruption)” value ([1]; E. faecalis) is reported as “E. faecalis (A)” and the “Organism, effect (morphology, biofilm and growth disruption)” value ([1]; MRSA) is reported as “MRSA (C)”. The “Organism, effect (morphology, biofilm and growth disruption)” value ([1]; S. epidermidis) was “S. epidermidis (M)”, the “Organism, effect (morphology, biofilm and growth disruption)” value ([1]; S. pneumoniae) was “S. pneumoniae (R)” and the “Target(s) (microorganism bound by the targeting peptide)” value [2] was “S. epidermidis and P. mirabilis and E. coli and C. albicans and MRSA and S. pneumoniae and C. jeikeium”.

In the case of “PF-601 (YRVTVKALE; Peptide with targeting and/or antimicrobial activity)”, the “Organism, effect (morphology, biofilm and growth disruption)” value ([1]; C. jejuni) is reported as “C. jejuni (A)”, the “Organism, effect (morphology, biofilm and growth disruption)” value ([1]; E. faecalis) is reported as “E. faecalis (A)” and the “Target(s) (microorganism bound by the targeting peptide)” value [2] is reported as “C. jeikeium”.

With “PF-602 (LEKEKKEYIEKLFKTK; Peptide with targeting and/or antimicrobial activity)” the “Organism, effect (morphology, biofilm and growth disruption)” value ([1]; E. faecalis) was “E. faecalis (A)” and the “Target(s) (microorganism bound by the targeting peptide)” value [2] was “P. mirabilis; also recorded: C. jeikeium”.

In the case of “PF-604 (LMEQVEV; Peptide with targeting and/or antimicrobial activity)”, the “Organism, effect (morphology, biofilm and growth disruption)” value ([1]; E. faecalis) is reported as “E. faecalis (A)” and the “Target(s) (microorganism bound by the targeting peptide)” value [2] is reported as “S. epidermidis; also recorded: C. albicans; also recorded: C. jeikeium”.

In the case of “PF-607 (YIESDPRKFDYIFGAIRDH; Peptide with targeting and/or antimicrobial activity)”, the “Organism, effect (morphology, biofilm and growth disruption)” value ([1]; C. jejuni) is reported as “C. jejuni (R)”, the “Organism, effect (morphology, biofilm and growth disruption)” value ([1]; E. faecalis) is reported as “E. faecalis (A)” and the “Organism, effect (morphology, biofilm and growth disruption)” value ([1]; MRSA) is reported as “MRSA (S)”. The “Organism, effect (morphology, biofilm and growth disruption)” value ([1]; S. epidermidis) was “S. epidermidis (M)”, the “Organism, effect (morphology, biofilm and growth disruption)” value ([1]; S. pneumoniae) was “S. pneumoniae (R)” and the “Target(s) (microorganism bound by the targeting peptide)” value [2] was “S. epidermidis and P. mirabilis and E. coli and MRSA and S. pneumoniae and C. jeikeium”.
